Assay results: US5654451A, “Amino acids and peptides having modified C-terminals and modified N-terminals” (Magainin Pharmaceuticals Inc., priority 1995, dated 1997)
In brackets after ≈: the same amount, converted by molar mass. Several values for one entry are separate records, joined by “and”; a condition that tells them apart may be missing. Equal entries are not always repeated.

Legend:
Experiment in all cases: Antimicrobial assay (MIC, microtiter broth dilution)
Format in all cases: cell-based
C. albicans = conditions: for MIC Candida: Table VI
Procedure: (§1) The procedure for the antimicrobial assay is based upon the guidelines of the National Committee for Clinical Laboratory Standards, Document M7-T2, Volume 8, No. 8, 1988.
(§2) 1-5×10^5 CFUs/ml of either S. aureus ATCC 25923, E. coli ATCC 25922, P. aeruginosa ATCC 27853, or C. albicans were added to the wells in full strength Mueller Hinton broth (BBL 11443) from a mid-log culture. The inoculum is standardized spectrophotometrically at 600 nm and is verified by colony counts. The plates are incubated for 16-20 hours at 37° C., and the minimal inhibitory concentrations (MIC) for the compounds are determined. Minimal inhibitory concentration is defined as the lowest concentration of amino acid or peptide which produces a clear well in the microtiter plate.

E. coli = tested on: E. coli
Procedure: as §1, §2

P. aeruginosa = conditions: for MIC Psuedo: Table VI
Procedure: as §1, §2

S. aureus = conditions: for MIC Staph: Table VI
Procedure: as §1, §2

Compound | MIC Candida (C. albicans) | MIC E. coli (E. coli; Table VI) | MIC Psuedo (P. aeruginosa) | MIC Staph (S. aureus) | MIC C. albicans (C. albicans; Table I) | MIC E. coli (E. coli; Table I, E. coli ATCC 25922) | MIC P aeruginosa (P. aeruginosa; Table I, P. aeruginosa ATCC 27853) | MIC S. aureus (S. aureus; Table I, S. aureus ATCC 25923)
N=C(N)NC(Cc1ccccc1)C(=O)NC1CCCCC1 (stereo not drawn) [Compound 77, N^α -Amidino-Phe-cyclohexylamide] | > 256 µg/mL | > 256 µg/mL | > 256 µg/mL | 128 µg/mL (≈ 444 µM) |  |  |  | 
CCCCCCCCN(CCCCCCCC)C(=O)C(Cc1cnc[nH]1)NC(=N)N (stereo not drawn) [Compound 78, N^α -Amidino-His-dioctylamide] | 1 µg/mL (≈ 2.38 µM) | 4 µg/mL (≈ 9.51 µM) | 8 µg/mL (≈ 19 µM) | 1 µg/mL (≈ 2.38 µM) |  |  |  | 
CCCCCCCCN(CCCCCCCC)C(=O)CCCCNC(=N)N [Compound 79, S-Guanidino Valeryl-dioctylamide] | 1 to 2 µg/mL | 8 µg/mL (≈ 20.9 µM) | > 256 µg/mL | 2 µg/mL (≈ 5.23 µM) |  |  |  | 
CCCCCCCCN(CCCCCCCC)C(=O)C(Cc1ccccc1)NCc1ncc[nH]1 (stereo not drawn) [Compound 80, N^α -(Imidazole-2-methyl)-Phe-dioctylamide] | > 256 µg/mL | > 256 µg/mL | > 256 µg/mL | 2 µg/mL (≈ 4.27 µM) |  |  |  | 
CCCCCCCCN(CCCCCCCC)C(=O)C(N)Cc1ccccc1 (stereo not drawn) [Compound 81, Phe-dioctylamide] | > 256 µg/mL | > 256 µg/mL | > 256 µg/mL | 4 µg/mL (≈ 10.3 µM) |  |  |  | 
CCCCCCCCN(CCCCCCCC)C(=O)C(Cc1ccc(F)cc1)NC(=N)N (stereo not drawn) [Compound 83, N^α -Amidino-p-F-Phe-diocytlamide] | 2 µg/mL (≈ 4.46 µM) | 64 µg/mL (≈ 143 µM) | 128 µg/mL (≈ 285 µM) | 2 µg/mL (≈ 4.46 µM) |  |  |  | 
CCCCCCCCN(CCCCCCCC)C(=O)CC(O)CNC(=N)N (stereo not drawn) [Compound 84, γ-Guanidino-β-hydroxy butyrul dioctylamide] | 0.5 µg/mL (≈ 1.3 µM) | 4 µg/mL (≈ 10.4 µM) | 16 µg/mL (≈ 41.6 µM) | 1 µg/mL (≈ 2.6 µM) |  |  |  | 
CCCCCCCCN(CCCCCCCC)C(=O)[C@H](Cc1ccccc1)NC(=O)CC(O)CNC(=N)N (stereo partly drawn) [Compound 85, γ-Guanidino-β-hydroxy butyryl-Phe-dioctylamide] | 0.5 µg/mL (≈ 0.94 µM) | 32 µg/mL (≈ 60.2 µM) | 64 µg/mL (≈ 120 µM) | 1 µg/mL (≈ 1.88 µM) |  |  |  | 
N=C(N)NC(CCC(=O)NC12CC3CC(CC(C3)C1)C2)C(=O)NC12CC3CC(CC(C3)C1)C2 (stereo not drawn) [Compound 86, N^α -Amidino-Glu-(α,γ) diadamantanamide] | 32 to 64 µg/mL | 128 µg/mL (≈ 281 µM) | 128 µg/mL (≈ 281 µM) | 4 µg/mL (≈ 8.78 µM) |  |  |  | 
CCCCCCCCN(CCCCCCCC)C(=O)CCNC(=O)CC(O)CNC(=N)N (stereo not drawn) [Compound 87, γ-Guanidino-β-hydroxy butyryl-β-Ala-dioctylamide] | 0.5 µg/mL (≈ 1.1 µM) | 4 µg/mL (≈ 8.78 µM) | 16 µg/mL (≈ 35.1 µM) | 2 µg/mL (≈ 4.39 µM) |  |  |  | 
CCCCCCCCN(CCCCCCCC)C(=O)C(Cc1ccc(N)cc1)NC(=N)N (stereo not drawn) [Compound 88, N^α -Amidino-p-amino-Phe-dioctylamide] | 0.5 µg/mL (≈ 1.12 µM) | 4 µg/mL (≈ 8.97 µM) | 32 µg/mL (≈ 71.8 µM) | 1 µg/mL (≈ 2.24 µM) |  |  |  | 
N-α-amidino phenylalanyl heptylamide [Compound 27] |  |  |  |  | 64 µg/mL | 128 µg/mL | 128 µg/mL | 8 µg/mL
N^α -Amidino-Phe-didecylamide [Compound 69] | 32 µg/mL and 64 µg/mL | 16 µg/mL | > 256 µg/mL and 256 µg/mL |  |  |  |  | 
